Test results as given in US5723115A, “Inhibition of adipose tissue development and obesity” (W. Alton Jones Cell Science Center, Inc., priority 1993, dated 1998).

Key:
[1] = test system: adipocyte precursors isolated from inguinal fat pads; details: earlier study; cited from earlier work
EGF receptors = biological target: T1, EGF receptors (Rattus norvegicus, UniProt G3V6K6); experiment: 125I-EGF binding to EGF receptors on adipocyte precursors; details: control and treated rats, with or without acid wash
T1 construct: adipocyte precursors have specific EGF receptors on their surface; endogenous in cells; host or cells: primary adipocyte precursors from inguinal fat pads of neonatal NBR rats
Description: The properties of adipocytes from EGF-treated rats, namely, a decreased ability to differentiate and an increased sensitivity to EGF in vitro, could not be explained by occupancy of EGF receptors at the time of cell isolation.

[2] = test system: organs including inguinal fat pads; details: rat, in vivo
Description: One question raised by the above results is whether the inhibition of adipose tissue development by EGF is due to a direct action of EGF on adipose tissue or by indirect action via another growth factor or hormone. Several observations point to direct action of EGF: EGF inhibits the differentiation of primary culture of adipocyte precursors freshly isolated from inguinal fat pads (10); adipocyte precursors have specific EGF receptors on their surface (10).

1246 cells = experiment: Differentiation of 1246 cells (G3PDH enzymatic activity); format: cell-based
Description: FIG. 11 is a graph showing the dose-related inhibition of adipocyte differentiation by prostaglandin F2α (PGF^2α). 1246 cells were incubated with the indicated dose of pGF^2α
FIG. 12 is a graph showing that indomethacin reverses the EGF-induced inhibition of adipocyte differentiation. 1246 cells were incubated in medium ("no"=control, 100% of activity) or in the presence of indicated concentrations of EGF, indomethacin ("Indo") or a mixture of EGF (E) at the indicated concentration and indomethacin (I) at 3 μM. As above, differentiation was assessed as G3PDH enzymatic activity.
Stimulation of PLA2 will result in the activation of the cyclooxygenase pathway, leading to generation of various prostaglandins, as is well-known in the art. One metabolite of this pathway, prostaglandin F2α (PGF2α), was tested for its ability to act as a mediator of the EGF effect and inhibit adipocyte differentiation.
If EGF inhibits adipocyte differentiation via the activation of PLA2 and cyclooxygenase, it would be expected that an inhibitor of cyclooxygenase would counteract the EGF effect.

phospholipase A2 (PLA2) = details: EGF 10 ng/ml
Description: Experiments were performed to examine whether stimulation of adipocyte precursors, either primary cultures or the 1246 cell line, activated the enzyme phospholipase A2 (PLA2) which results in the activation of cyclooxygenase and the generation of prostaglandins.

obese yellow mice = experiment: Neonatal EGF treatment of obese yellow mice, body weight development over 43 days; format: in vivo, mouse; details: 1 μg/g body weight, day 1 to day 10 of life
Description: FIG. 7 is a graph showing the effect of EGF treatment on development of body weight in obese yellow mice over 43 days. Mice were injected beginning at 24 hours after birth with EGF (1 μg/g body weight) (filled diamonds, marked 1Y) or with vehicle (PBS) (+, marked OY) for 9 days. Weights are shown beginning at postnatal day 13

adipocyte precursors = experiment: Effect of EGF on proliferation of adipocyte precursors in 4F medium (cell count); format: cell-based, rat
Description: FIG. 5 is a graph showing the effect of EGF on proliferation of adipocyte precursors. Controls and EGF-treated animals as in FIG. 4. After 8 days of culture, cells were detached with trypsin and counted on a Coulter counter. Values represent means±standard errors.
For this purpose, adipocyte precursors isolated from inguinal fat pads of control or EGF-injected animals (1 μg/g body weight) were cultivated in 4F medium alone or in the presence of increasing concentrations of EGF. […] The ED50 for EGF on cells from EGF-treated animals was calculated to be 0.5 ng/ml, compared to an ED50 of 0.9 ng/ml for EGF acting on control cells.
Marked stimulation of proliferation (in cells from controls or EGF-treated rats) was observed only at EGF concentrations above 1 ng/ml.

[3] = test system: newborn NBR rats (inguinal fat pads); experiment: Daily sc EGF injection of newborn NBR rats for 10 days: eyelid response, body, organ and inguinal fat pad measures; format: in vivo, rat
Description: New Zealand Brown (NBR) rats (Trudeau Institute, Saranac Lake, N.Y.) were mated in the animal facilities of the W. Alton Jones Cell Science Center. One day after delivery, litter size was adjusted to 6-8 pups/female according to the size and age of the females. No more than 8 pups/female were used. Mothers were fed ad libitum a regular laboratory diet and were allowed free access to water. Animals were housed in rooms in which the air flow, temperature and lights were controlled (12 h of light between 6 AM to 6 PM).
Mouse "receptor grade" EGF (Biomedical Technologies, Inc.) was used in all experiments. […] Beginning at 24 hrs after birth, rats were injected subcutaneously (sc) daily for 10 days with EGF dissolved in physiological saline at doses varying between 0.1 and 1.0 μg/g of body weight. The pups were weighed prior to each injection. Control animals were similarly handled and weighed, and were injected sc with an equivalent volume of physiological saline.
(§1) Inguinal fat pads, well developed in 10 day-old animals, can be easily dissected. Inguinal fat pads were excised, weighed and pooled. They were digested with collagenase using the method of Bjorntorp et al. (23), and duplicate aliquots were kept for measuring triglyceride content as described below. Digestion conditions minimized breakage of adipocytes during the incubation period (23). After digestion, the cell suspension was filtered through a 253 μm nylon mesh filter. Adipocytes were easily recovered by two successive flotations of the cell suspension. The infranatant containing the adipocyte precursors was removed with a plastic pipet and further filtered through an 80 μm nylon mesh. The adipocytes remained in the tube after removal of the infranatant. They were gently resuspended in culture medium and counted in a hemocytometer. The filtrate containing the adipocyte precursors was centrifuged twice at 200×g for 5 minutes. Adipocyte precursor pellets were resuspended in 4F medium. The cells were subsequently counted in a hemocytometer and inoculated in 35 mm dishes in 4F medium as described previously (24). Such cultures were used to evaluate the cells' ability to differentiate and to measure their responsiveness to EGF.
For determination of triglyceride content, lipids were extracted from duplicate aliquots of the fat pad cell suspensions obtained as above pads, using the method of Bligh et al. (26). Triglycerides were separated by thin-layer chromatography on silica gel plates using hexane/[…]/formic acid (60:40:1) as a solvent system. Spots containing triglycerides were scraped, and the triglyceride content was determined by the method of Marsh et al. (27). This method consists of a quantitative charring of the triglycerides at 200° C. for 15 min in the presence of concentrated sulfuric acid. Absorbance of the samples at 350 nm was measured in a spectrophotometer using known amounts of triolein as standards.
Ten separate in vivo experiments were performed with neonatal NBR rats. Over the 10 day period, pups injected with saline alone or with EGF were weighed daily. The efficiency of EGF injected was assessed by monitoring the "eyelid response," by determining the postnatal day on which eyelid opening occurs, which is related to the EGF dose (28). Eyelid opening occurred at day 8 in rats injected with EGF at a concentration of 1 μg/g body weight, 24 hrs later in rats treated with 0.6 μg EGF/g body weight, and 48 hrs later in rats injected with 0.3 μg EGF/g body weight.

[4] = test system: adipocyte precursors isolated from inguinal fat pads; experiment: Differentiation capacity in 4F medium of adipocyte precursors isolated from EGF-treated rats (G3PDH specific activity); format: cell-based, rat
Description: as §1
(§2) The defined medium designated 4F consists of a 1:1 mixture of Dulbecco's modified Eagle's medium (DME) and Ham's F12 medium (DME-F12 medium) containing 15 mM HEPES, pH 7.4, 1.2 mg/ml sodium bicarbonate, 50 μg/ml gentamicin, and the following mixture of proteins: fibronectin (2.5 μg/ml), insulin (10 μg/ml), transferrin (10 μg/ml) and fibroblast growth factor (10 ng/ml). The medium was originally developed to support the differentiation of the adipogenic cell line, 1246 (25). When cultivated in this medium, optimal differentiation of adipocyte precursors was achieved within 8 days of culture (24).
It was shown previously (24) that adipocyte precursors freshly isolated from inguinal fat pads of 48 hr-old rats proliferated and differentiated in 4F medium (see above). […]

[5] = test system: adipocyte precursors isolated from inguinal fat pads; experiment: Inhibition by EGF of differentiation of primary culture adipocyte precursors (G3PDH activity); format: cell-based, rat
Description: as §1, §2
Studies from the present inventor's laboratory (10) have shown that the differentiation in vitro of adipocyte precursors cultivated in 4F medium was inhibited in a dose-dependent manner by EGF added to the medium. […]

newborn rats = experiment: Neonatal EGF treatment of rats, body weight development over 28 days; format: in vivo, rat; details: 0.6 μg/g body weight, from 24 hours after birth, 9 days
Description: FIG. 6 is a graph showing the effect of EGF treatment of newborn rats on development of body weight over 28 days. Rats were injected beginning at 24 hours after birth with EGF (0.6 μg/g body weight) (filled squares) or with vehicle (PBS) (+) for 9 days.

[6] = EGF-treated compared to control animals

Q: With transforming growth factor.α [TGFα] as the molecule, how does the “differentiation of primary culture adipocyte precursors from inguinal fat pad of newborn rats” value [1] read?
A: potent inhibitor

Q: Which “EGF bound to EGF receptors on adipocyte precursors” value (EGF receptors) does the source give for “^125 I-EGF: radiolabeled EGF used in binding studies” here?
A: about 4 pg EGF bound per 10^5 cells

Q: And the “binding to organs after sc injection” value [2]?
A: specifically bound to several organs including inguinal fat pads

Q: For prostaglandin F2α [PGF2α], which “differentiation of 1246 cells” value (1246 cells; indicated doses (FIG. 11)) is on record?
A: concentration-dependent inhibition

Q: Which “effect on EGF inhibition of adipocyte differentiation” value (1246 cells; indomethacin 3 μM with EGF at 2 or 10 ng/ml) does the source give for COc1ccc2c(c1)c(CC(=O)O)c(C)n2C(=O)c1ccc(Cl)cc1 [indomethacin] here?
A: completely reversed

Q: Which “differentiation of primary culture adipocyte precursors from inguinal fat pad of newborn rats” value [1] does the source give for Epidermal growth factor [EGF] here?
A: potent inhibitor

Q: And the PLA2 activity (phospholipase A2 (PLA2))?
A: increase in PLA2 activity

Q: And the “body weight over at least 43 days” value (obese yellow mice)?
A: prolonged and profound diminution in body weight

Q: What about the “effect on cell proliferation of the EGF concentration which inhibited differentiation by 50%” value (adipocyte precursors) of the same molecule?
A: moderate or no effects

Q: What about the “proliferation of adipocyte precursors” value (adipocyte precursors; EGF added to 4F medium, cells from control and EGF-treated rats, 8 days) of the same molecule?
A: stimulated proliferation

Q: What about the “EGF concentration giving marked stimulation of proliferation” value (adipocyte precursors; cells from controls or EGF-treated rats) of the same molecule?
A: above 1 ng/ml

Q: What about the “eyelid opening at termination, day 10” value ([3]; 0.1 μg EGF/g body weight sc daily) of the same molecule?
A: eyelid opening had not yet occurred

Q: And the “eyelid opening, time later than at the 1 μg/g dose” value ([3]; 0.3 μg EGF/g body weight sc daily)?
A: 48 h

Q: What about the “eyelid opening, time later than at the 1 μg/g dose” value ([3]; 0.6 μg EGF/g body weight sc daily) of the same molecule?
A: 24 h

Q: And the “fat pad triglyceride content, lower than control” value ([3]; 1 μg EGF/g body weight)?
A: 80%

Q: What about the “number of mature adipocytes in the fat pad, lower than in control animals” value ([3]; 1 μg EGF/g body weight) of the same molecule?
A: 4 fold

Q: What about the “body weight, less than in control animals” value ([3]; 1 μg EGF/g body weight, 10 days) of the same molecule?
A: 40%

Q: What about the “inguinal fat pad weight, lower than in controls” value ([3]; 1 μg of EGF/g body weight, 10 days) of the same molecule?
A: 50%

Q: What about the “number of adipocyte precursors per fat pad, higher than in control animals” value ([3]; 1 μg/g body weight) of the same molecule?
A: 1.8 fold

Q: And the “postnatal day on which eyelid opening occurs” value ([3]; 1 μg/g body weight sc daily)?
A: 8 days

Q: And the intestinal weight ([3]; EGF treatment)?
A: increased

Q: What about the kidney weight ([3]; EGF treatment) of the same molecule?
A: some decrease

Q: What about the liver weight ([3]; EGF treatment) of the same molecule?
A: unchanged

Q: And the “total number of cells (precursors plus adipocytes) in fat pads, lower than controls” value ([3]; EGF-treated animals)?
A: 40%

Q: And the hair growth [3, 6]?
A: delay in hair growth

Q: And the incisor eruption [3, 6]?
A: acceleration of incisor eruption

Q: What about the “lowest EGF dose at which a significant delay of adipose tissue development was observed” value ([3]; daily sc injection) of the same molecule?
A: 0.3 μg/g body weight

Q: And the “G3PDH specific activity corresponding to 100% activity (FIG. 4)” value ([4]; cells from EGF-treated rats)?
A: 337±53 milliunits/mg protein

Q: What about the “G3PDH specific activity, lower than control” value ([4]; cells from animals treated with 1 μg/g, day 8 of culture) of the same molecule?
A: 60%

Q: What about the G3PDH specific activity ([4]; cells from animals treated with EGF 1 μg/g, 5 separate experiments) of the same molecule?
A: 337±53 mU/mg protein

Q: And the “differentiation (G3PDH activity)” value ([5]; EGF 10 ng/ml, primary cultures)?
A: inhibition of differentiation

Q: What about the “ED50 for inhibition of differentiation (G3PDH enzyme activity)” value ([5]; cells from EGF-treated animals (1 μg/g body weight)) of the same molecule?
A: 0.5 ng/mL

Q: What about the “ED50 for inhibition of differentiation (G3PDH enzyme activity)” value ([5]; control cells) of the same molecule?
A: 0.9 ng/mL

Q: And the “body weight over a 28 day period” value (newborn rats)?
A: significant reduction in body weight
